Data: patent publication US6548540B2, “Method of treating cancer using dithiocarbamate derivatives” (Charlotte-Mecklenburg Hospital Authority, priority 1998, dated 2003)
Blank lines part the entries; values can stand above or below the molecule they belong to.

Assays:
M1619 melanoma cells = test: MTT proliferation assay, M1619 melanoma; format: cell-based, human; conditions: for antiproliferative activity of gold complexed with disulfiram: M1619, compared with DS 160 nM
Method: (§1) Human malignant cell lines were obtained from American Type Tissue Culture Collection (Rockville, Md.). Melanoma cells lines CRL 1585 and 1619 were cultured in RPMI 1640 (GIBCO-BRL, Life Technologies, Grand Island, N.Y.) with 10% FBS and passed with nonenzymatic Cell Dissociation Solution® (Sigma). The prostate adenocarcinoma cell line CRL 1435 (PC-3) was also cultured in RPMI 1640 with 10% FBS but passed with 0.05% trypsin and 0.53 mM EDTA. The squamous lung carcinoma NCI-H520 and the adenosquamous lung carcinoma NCI-H596 cell lines were grown in RPMI 1640 supplemented with 10% FBS, 10 mM HEPES and 1.0 mM sodium pyruvate and passed with trypsin/EDTA. The small cell lung carcinoma NCI-H82 was cultured as a suspension in RPMI 1640 with 10% FBS. All of the above were grown in a 37° C. humidified environment containing 5% CO2/air. The breast carcinoma cell line MDA-MB-453 was grown in a 37° C. humidified environment with free gas exchange with atmospheric air using Leibovitz's L-15 medium with 2 mM L-glutamine and 10% FBS and was passed with trypsin/EDTA.
The effect of disulfiram (0.15 to 5.0 μM), diethyldithiocarbamate (DDC, 1.0 μM) or PDTC (0.625 to 5.0 μM) on proliferation of malignant cell lines was studied in cultures stimulated with 10% FBS. Cell numbers were quantitated 24-72 hours later. In some experiments disulfiram or PDTC were added immediately after cells were plated. In other experiments, cells were plated and allowed to grow for 24-72 hours before fresh media with disulfiram or PDTC was added, and cell numbers were assayed 24-72 hours later.
Finally, a number of dithiocarbamate effects on cells have been attributed to increasing the intracellular levels of copper ions. To further probe the role of copper in mediating cytotoxicity from disulfiram, cells were cultured with or without addition of the impermeate Cu^2+ chelator bathocuprioinedisulfonic acid (BCPS, 100 μM) added to medium to sequester Cu^2+ in the extracellular compartment. Cells were also treated 12 hours with various concentration of disulfiram (0.625 to 5.0 μM) and intracellular copper levels were measured as outlined below.
Proliferation of cultured cells was quantitated using a previously reported calorimetric method based upon metabolic reduction of the soluble yellow tetrazolium dye 3-[4,5-dimethylthiazol]-2yl-2,5-diphenyl tetrazolium bromide (MTT) to its insoluble purple formazan by the action of mitochondrial succinyl dehydrogenase (See, e.g., S. J. Hirst, et al., “Quantifying proliferation of cultured human and rabbit airway smooth muscle in response to serum and platelet derived growth factor,” Am. J. Respir. Cell Mol. Biol. 7:574-581 (1992); R. Dashtaki, et al. R., supra; S. S. Brar, et al., “Requirement for reactive oxygen species in serum-induced and platelet-derived growth factor-induced growth of airway smooth muscle,” J. Biol. Chem. 274:20017-20026 (1999)). This assay empirically distinguishes between dead and living cells. For proliferation studies, cells were seeded into 24-well uncoated plastic plates (Costar) at 50,000 cells per well and cultured with respective media and mitogens.

Melanoma M1585 = test: MTT proliferation assay, M1585 melanoma; format: cell-based; conditions: Homo sapiens; M1585 melanoma cells; read-out: 50% inhibitor concentration (IC50)
Method: as §1
The effect of disulfiram (0.15 to 5.0 μM), diethyldithiocarbamate (DDC, 1.0 μM) or PDTC (0.625 to 5.0 μM) on proliferation of malignant cell lines was studied in cultures stimulated with 10% FBS. Cell numbers were quantitated 24-72 hours later. In some experiments disulfiram or PDTC were added immediately after cells were plated. In other experiments, cells were plated and allowed to grow for 24-72 hours before fresh media with disulfiram or PDTC was added, and cell numbers were assayed 24-72 hours later. Synergy was studied between disulfiram and N,N′-bis(2-chloroethyl-N-nitrosourea (carmustine or BCNU, 1.0 to 1,000 μM) or cisplatin (0.1 to 100 μg/ml) added to medium. The effect of metals on disulfiram was studied with 0.2 to 10 μM copper (provided as CuSO4), zinc (as ZnCl2), silver (as silver lactate) or gold (as HAuCl4.3H2O) ions added to growth medium. No pH changes occurred with addition of metal salts to culture medium. To provide a biologically relevant source of copper, in some experiments medium was supplemented with human ceruloplasmin at doses replicating low and high normal adult serum concentrations (250 and 500 μg/ml).
Proliferation of cultured cells was quantitated using a previously reported calorimetric method based upon metabolic reduction of the soluble yellow tetrazolium dye 3-[4,5-dimethylthiazol]-2yl-2,5-diphenyl tetrazolium bromide (MTT) to its insoluble purple formazan by the action of mitochondrial succinyl dehydrogenase (See, e.g., S. J. Hirst, et al., “Quantifying proliferation of cultured human and rabbit airway smooth muscle in response to serum and platelet derived growth factor,” Am. J. Respir. Cell Mol. Biol. 7:574-581 (1992); R. Dashtaki, et al. R., supra; S. S. Brar, et al., “Requirement for reactive oxygen species in serum-induced and platelet-derived growth factor-induced growth of airway smooth muscle,” J. Biol. Chem. 274:20017-20026 (1999)). This assay empirically distinguishes between dead and living cells. For proliferation studies, cells were seeded into 24-well uncoated plastic plates (Costar) at 50,000 cells per well and cultured with respective media and mitogens. After 24-96 hours, medium was removed, cells were washed twice with 1 ml of sterile Dulbecco's modified phosphate buffered saline without Ca^2+ or Mg^2+ (DPBS), the medium was replaced with 1 ml/well fresh medium containing 100 μg/ml MTT, and plates were incubated an additional hour. MTT-containing medium was removed, 0.5 ml dimethylsulfoxide (DMSO) was added to each well, and the absorbance of the solubilized purple formazan dye was measured at 540 nm. A total of 4-6 wells were studied at each treatment condition. Preliminary studies were performed with 50-200 μg/ml MTT incubated for 15 minutes to 3 hours to determine the optimum concentration and incubation time at which the rate of conversion was linear and proportional to the number of cells present. […]

tumor cell lines = test: Proliferation of tumor cell lines with redox, NO synthase or cyclooxygenase agents (cell line not given); format: cell-based, human
Method: Potential redox effects of disulfiram were studied in three sets of experiments. The importance of cellular glutathione (GSH) in mediating or modulating thiocarbamate toxicity was studied by measuring levels of intracellular GSH after treatment with disulfiram. […] Also, to assess whether a nonspecific antioxidant effect of disulfiram or PDTC might account for cellular growth inhibition, we studied the effect of the potent lipophilic antioxidant probucol (1.0 to 1,000 μM) on proliferation of malignant cell lines. […] To explore the role of cyclooxygenase inhibition on tumor cell growth, cells were cultured with or without disulfiram in the presence or absence of the cyclooxygenase-1 (COX1) and cyclooxygenase-2 (COX2) inhibitors indomethacin (5μg/ml) or sodium salicylate (1 mM). To probe whether disulfiram might be inducing growth retardation by interruption or stimulation of NO production, proliferation was studied with and without disulfiram in the presence and absence of the nitric oxide […] inhibitor Nω-nitro-L-arginine added to growth medium (100 μM). […] J. Respir. Cell Mol. Biol. 7:574-581 (1992); […], et al. R., supra; S. S. Brar, et al., “Requirement for reactive oxygen species in serum-induced and platelet-derived growth factor-induced growth of airway smooth muscle,” J. Biol. Chem. 274:20017-20026 (1999)). This assay empirically distinguishes between dead and living cells. For proliferation studies, cells were seeded into 24-well uncoated plastic plates (Costar) at 50,000 cells per well and cultured with respective media and mitogens. […] MTT-containing medium was removed, 0.5 ml dimethylsulfoxide (DMSO) was added to each well, and the absorbance of the solubilized purple formazan dye was measured at 540 nm. A total of 4-6 wells were studied at each treatment condition.

Molecule: N.N.[Cl][Pt][Cl] [Cisplatin, cisplatin]
A540 of MTT Formazan (M1619 melanoma cells; cisplatin 1 ng/ml + DMSO vehicle, added after 48 hours, additional 24 hours): 1.739 ± 0.041
A540 of MTT Formazan (M1619 melanoma cells; cisplatin 10 ng/ml + DMSO vehicle, added after 48 hours, additional 24 hours): 1.447 ± 0.047
A540 of MTT Formazan (M1619 melanoma cells; cisplatin 100 ng/ml + DMSO vehicle, added after 48 hours, additional 24 hours): 1.372 ± 0.052
A540 of MTT Formazan (M1619 melanoma cells; cisplatin 1,000 ng/ml + DMSO vehicle, added after 48 hours, additional 24 hours): 1.381 ± 0.098

Molecule: CCN(CC)C(=S)[S-].O.O.O.[Na+] [NaDDC, sodium diethyldithiocarbamate trihydrate]
antiproliferative activity of the thiolate with DTT in medium (M1619 melanoma cells; NaDDC 1 μM plus DTT 100 μM, 48 hours): reduced by low concentrations of DTT

Molecule: dichloro(diethylthiocarbamyl)gold (II) [AuDS]
antiproliferative activity of gold complexed with disulfiram (M1619 melanoma cells; 48 hr): enhanced antiproliferative activity
antiproliferative activity of gold complexed with disulfiram (M1619 melanoma cells; 48 hr, listed as complex of gold with disulfiram): antiproliferative at nM concentrations

IC50 (Melanoma M1585): ~1.25 µM
Molecule: S=C(S)N1CCCC1 [PDTC, Pyrrolidinedithiocarbamate]

Molecule: Cc1cc(-c2ccc(S(=O)(=O)O)cc2)c2ccc3c(-c4ccc(S(=O)(=O)O)cc4)cc(C)nc3c2n1 [BCPS, bathocuproinedisulfonic acid]
effect of Cu2+ chelator on growth inhibition from disulfiram (M1619 melanoma cells; 1.25 μM disulfiram with 50 or 100 μM BCPS, 48 hr): greatly reduces growth inhibition

Molecule: [Cl-].[Cl-].[Zn+2] [zinc chloride]
effect of zinc on antiproliferative potential of disulfiram (M1619 melanoma cells; ZnCl2 with 0.625 μM disulfiram, grown 24 hours, additional 24 hr): substantially enhanced

Molecule: CC(C)(Sc1cc(C(C)(C)C)c(O)c(C(C)(C)C)c1)Sc1cc(C(C)(C)C)c(O)c(C(C)(C)C)c1 [probucol]
growth of tumor cell lines (tumor cell lines; probucol 1.0 to 1,000 μM, data not shown): did not significantly inhibit growth

Molecule: O=NN(CCCl)C(=O)NCCCl [Carmustine]
A540 of MTT Formazan (M1619 melanoma cells; carmustine 1 μM + DMSO vehicle, 24 hours): 0.197 ± 0.004
A540 of MTT Formazan (M1619 melanoma cells; carmustine 10 μM + DMSO vehicle, 24 hours): 0.152 ± 0.011
A540 of MTT Formazan (M1619 melanoma cells; carmustine 100 μM + DMSO vehicle, 24 hours): 0.020 ± 0.002
A540 of MTT Formazan (M1619 melanoma cells; carmustine 1,000 μM + DMSO vehicle, 24 hours): 0.003 ± 0.000

Molecule: N=C(NCCC[C@H](N)C(=O)O)N[N+](=O)[O-] [LNAME, Nω-nitro-L-arginine]
increase of cellular growth (tumor cell lines; LNAME alone (100 μM), vs DMSO vehicle control): 23.7±2.3%

B1: ceruloplasmin: 132-kD glycoprotein carrying 7 copper atoms, the major copper-carrying protein in human plasma (protein, UniProt P00450 20-1065, looked up)
Ceruloplasmin: KEKHYYIGIIETTWDYASDHGEKKLISVDTEHSNIYLQNGPDRIGRLYKKALYLQYTDETFRTTIEKPVWLGFLGPIIKAETGDKVYVHLKNLASRPYTFHSHGITYYKEHEGAIYPDNTTDFQRADDKVYPGEQYTYMLLATEEQSPGEGDGNCVTRIYHSHIDAPKDIASGLIGPLIICKKDSLDKEKEKHIDREFVVMFSVVDENFSWYLEDNIKTYCSEPEKVDKDNEDFQESNRMYSVNGYTFGSLPGLSMCAEDRVKWYLFGMGNEVDVHAAFFHGQALTNKNYRIDTINLFPATLFDAYMVAQNPGEWMLSCQNLNHLKAGLQAFFQVQECNKSSSKDNIRGKHVRHYYIAAEEIIWNYAPSGIDIFTKENLTAPGSDSAVFFEQGTTRIGGSYKKLVYREYTDASFTNRKERGPEEEHLGILGPVIWAEVGDTIRVTFHNKGAYPLSIEPIGVRFNKNNEGTYYSPNYNPQSRSVPPSASHVAPTETFTYEWTVPKEVGPTNADPVCLAKMYYSAVEPTKDIFTGLIGPMKICKKGSLHANGRQKDVDKEFYLFPTVFDENESLLLEDNIRMFTTAPDQVDKEDEDFQESNKMHSMNGFMYGNQPGLTMCKGDSVVWYLFSAGNEADVHGIYFSGNTYLWRGERRDTANLFPQTSLTLHMWPDTEGTFNVECLTTDHYTGGMKQKYTVNQCRRQSEDSTFYLGERTYYIAAVEVEWDYSPQREWEKELHHLQEQNVSNAFLDKGEFYIGSKYKKVVYRQYTDSTFRVPVERKAEEEHLGILGPQLHADVGDKVKIIFKNMATRPYSIHAHGVQTESSTVTPTLPGETLTYVWKIPERSGAGTEDSACIPWAYYSTVDQVKDLYSGLIGPLIVCRRPYLKVFNPRRKLEFALLFLVFDENESWYLDDNIKTYSDHPEKVNKDDEEFIESNKMHAINGRMFGNLQGLTMHVGDEVNWYLMGMGNEIDLHTVHFHGHSFQYKHRGVYSSDVFDIFPGTYQTLEMFPRTPGIWLLHCHVTDHIHAGMETTYTVLQNEDTKSG
effect of ceruloplasmin on antiproliferative activity of disulfiram (M1619 melanoma cells; ceruloplasmin 500 μg/ml with disulfiram, 24 hours): enhance the antiproliferative activity of disulfiram
